From patent US9365588B2, “Benzoxazines as modulators of ion channels” (Vertex Pharmaceuticals Incorporated, priority 2011, dated 2016) come the findings set out here.

Molecules are shown by their SMILES.

A word on the IC50: it is the concentration at which inhibition is half-maximal.

In this assay the target is human NaV 1.7 (Homo sapiens, UniProt Q15858). The assay is described as follows: E-VIPR optical membrane potential assay with electrical stimulation. Type of assay: cell-based. The following applies: sodium channel inhibition; read-out: Binned Activity Data (IC50). Summed up: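 Membrane-potential read-out: background-subtracted 460 nm/580 nm ratio during a 9 s current-controlled stimulus, 400 Hz scan. Before stimulation, NaV1.7-HEK cells carried coumarin/oxonol dye and compound (final DMSO 0.625%) for 20–35 min at room temperature; tetracaine 125 μM served as positive control.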
human NaV 1.7, sequence (Q15858 whole entry): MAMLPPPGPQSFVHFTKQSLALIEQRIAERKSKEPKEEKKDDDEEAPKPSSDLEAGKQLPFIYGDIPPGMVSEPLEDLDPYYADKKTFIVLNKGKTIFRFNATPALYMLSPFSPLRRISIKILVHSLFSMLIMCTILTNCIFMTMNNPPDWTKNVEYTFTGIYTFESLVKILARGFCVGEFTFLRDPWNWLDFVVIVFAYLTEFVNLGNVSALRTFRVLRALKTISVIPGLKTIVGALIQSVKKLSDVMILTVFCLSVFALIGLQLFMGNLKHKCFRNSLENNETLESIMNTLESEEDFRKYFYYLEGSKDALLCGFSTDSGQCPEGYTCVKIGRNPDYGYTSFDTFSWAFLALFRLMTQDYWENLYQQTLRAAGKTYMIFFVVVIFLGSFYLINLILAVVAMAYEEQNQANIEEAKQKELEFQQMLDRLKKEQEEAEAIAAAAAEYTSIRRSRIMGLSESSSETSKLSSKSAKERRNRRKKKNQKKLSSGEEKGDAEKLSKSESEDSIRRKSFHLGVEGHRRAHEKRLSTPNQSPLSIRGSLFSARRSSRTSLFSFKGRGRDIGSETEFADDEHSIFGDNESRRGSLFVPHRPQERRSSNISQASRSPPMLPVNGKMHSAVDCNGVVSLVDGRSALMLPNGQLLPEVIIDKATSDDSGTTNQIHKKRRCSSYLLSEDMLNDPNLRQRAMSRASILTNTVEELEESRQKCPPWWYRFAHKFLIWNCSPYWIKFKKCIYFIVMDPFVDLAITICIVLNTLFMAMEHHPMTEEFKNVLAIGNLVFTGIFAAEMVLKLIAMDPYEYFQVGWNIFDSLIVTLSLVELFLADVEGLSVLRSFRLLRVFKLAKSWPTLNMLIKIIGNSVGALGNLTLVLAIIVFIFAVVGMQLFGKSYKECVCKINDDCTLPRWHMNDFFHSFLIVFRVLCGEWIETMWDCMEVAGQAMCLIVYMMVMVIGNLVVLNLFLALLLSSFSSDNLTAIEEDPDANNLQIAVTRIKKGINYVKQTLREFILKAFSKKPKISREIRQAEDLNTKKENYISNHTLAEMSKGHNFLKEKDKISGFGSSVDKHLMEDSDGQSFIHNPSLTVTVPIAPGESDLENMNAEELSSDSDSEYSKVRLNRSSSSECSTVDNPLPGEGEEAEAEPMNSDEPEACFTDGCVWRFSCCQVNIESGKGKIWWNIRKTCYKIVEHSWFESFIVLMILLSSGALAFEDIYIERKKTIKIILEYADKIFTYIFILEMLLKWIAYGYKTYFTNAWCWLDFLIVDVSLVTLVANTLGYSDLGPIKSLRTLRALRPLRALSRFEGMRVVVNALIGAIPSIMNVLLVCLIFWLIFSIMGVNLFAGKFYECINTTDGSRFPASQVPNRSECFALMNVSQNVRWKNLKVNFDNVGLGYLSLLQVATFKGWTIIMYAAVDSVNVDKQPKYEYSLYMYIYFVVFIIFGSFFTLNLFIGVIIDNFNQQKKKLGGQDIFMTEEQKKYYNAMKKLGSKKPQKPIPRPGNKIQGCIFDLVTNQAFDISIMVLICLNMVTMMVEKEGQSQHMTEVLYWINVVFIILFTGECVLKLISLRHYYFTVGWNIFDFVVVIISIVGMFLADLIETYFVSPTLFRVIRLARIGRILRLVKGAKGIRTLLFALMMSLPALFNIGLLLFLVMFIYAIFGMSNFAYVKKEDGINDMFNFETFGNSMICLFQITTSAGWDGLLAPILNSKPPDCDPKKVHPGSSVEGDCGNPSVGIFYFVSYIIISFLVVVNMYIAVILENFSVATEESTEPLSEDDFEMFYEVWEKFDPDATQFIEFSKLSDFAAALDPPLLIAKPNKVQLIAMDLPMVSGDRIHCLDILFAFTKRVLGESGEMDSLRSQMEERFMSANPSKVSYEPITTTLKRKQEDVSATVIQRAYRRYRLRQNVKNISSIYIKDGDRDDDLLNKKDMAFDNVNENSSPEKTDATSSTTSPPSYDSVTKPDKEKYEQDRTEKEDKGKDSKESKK
For the compound `CCCOc1ccc(C(=O)N2CCC3(CC2)Oc2cc(F)ccc2-n2cccc23)cc1C(F)(F)F` [Compound 631], the concentration for half-maximal inhibition (IC50) was not above 2000 nM.

For `COc1cc(C(=O)N2CCC3(CC2)Oc2cc(F)ccc2-n2cccc23)ccc1OCC1CCCO1` (stereo not drawn) [Compound 632], the IC50 was not above 2000 nM.

In the case of `Cc1cc(C(C)(C)O)ccc1C(=O)N1CCC2(CC1)Oc1ccccc1-n1c(C#N)ccc12` [Compound 633], the IC50 is not above 2000 nM.

Turning to `COc1cc(C(=O)N2CCC3(CC2)Oc2cc(Cl)ccc2-n2cccc23)ccc1CCO` [Compound 635], the IC50 is not above 2000 nM.

Turning to `Cn1ncc2c1-c1ccccc1OC21CCN(C(=O)c2ccc(OC(F)(F)F)c(Cl)c2)CC1` [Compound 636], the half-maximal inhibitory concentration (IC50) was not above 2000 nM.

For `COc1cc(C(C)(C)O)ccc1C(=O)N1CCC2(CC1)Oc1ccccc1-c1c2cnn1C` [Compound 637], the IC50 is not above 2000 nM.

Take `C[C@@](O)(CO)c1ccc(C(=O)N2CCC3(CC2)Oc2ccccc2-n2c(C(F)(F)F)ccc23)cc1` [Compound 640]: the IC50 was not above 2000 nM.

For the compound `COc1ncccc1C(=O)N1CCC2(CC1)Oc1ccccc1-c1c2cnn1C` [Compound 642], the half-maximal inhibitory concentration (IC50) lay in the range of 2000 to 5000 nM.

Regarding `Cn1ncc2c1-c1ccccc1OC21CCN(C(=O)c2ccc(S(=O)(=O)C(C)(C)C)cc2)CC1` [Compound 643], the IC50 was 2000 to 5000 nM.

As to `Cn1ncc2c1-c1ccccc1OC21CCN(C(=O)c2cccc3cnn(C)c23)CC1` [Compound 644], the IC50 was more than 5000 nM.

As for `COc1ccc(C(=O)N2CCC3(CC2)Oc2ccccc2-c2nn(C)cc23)c(OC)c1OC` [Compound 646], the IC50 is not above 2000 nM.

As for `CC(C)Oc1ccc(C(=O)N2CCC3(CC2)Oc2ccccc2-c2c3cnn2C)cc1F` [Compound 650], the half-maximal inhibitory concentration (IC50) is not above 2000 nM.

On to `Cn1ncc2c1-c1ccccc1OC21CCN(C(=O)c2cccc3cccnc23)CC1` [Compound 651], for which the half-inhibitory concentration (IC50) was not above 2000 nM.

Turning to `Cn1cc2c(n1)-c1ccccc1OC21CCN(C(=O)c2ccnc3ccccc23)CC1` [Compound 652], the IC50 was not above 2000 nM.

With `Cn1ncc2c1-c1cc(Cl)ccc1OC21CCN(C(=O)c2ccccc2OC(F)(F)F)CC1` [Compound 653], the IC50 is not above 2000 nM.

For `Cc1cc(C(=O)N2CCC3(CC2)Oc2ccccc2-n2c(C#N)ccc23)ccc1OC(C)C` [Compound 655], the IC50 was not above 2000 nM.

For the compound `Cn1ncc2c1-c1ccccc1OC21CCN(C(=O)c2nccc3ccccc23)CC1` [Compound 657], the IC50 is more than 5000 nM.

For `Cc1nc(C(=O)N2CCC3(CC2)Oc2ccccc2-n2c(C(F)(F)F)ccc23)ccc1OC(C)C` [Compound 658], the IC50 was not above 2000 nM.

As to `N#Cc1ccc2n1-c1ccccc1OC21CCN(C(=O)c2ccc(F)c(Cl)c2)CC1` [Compound 659], the half-maximal inhibitory concentration (IC50) was more than 5000 nM.

Regarding `COc1cc(OC)c(C(=O)N2CCC3(CC2)Oc2cc(F)ccc2-n2cccc23)cc1CO` [Compound 660], the IC50 was not above 2000 nM.

Consider `CC(C)S(=O)(=O)c1ccc(C(=O)N2CCC3(CC2)Oc2cc(F)ccc2-c2c3cnn2C)cc1` [Compound 662], for which the IC50 fell in the range of 2000 to 5000 nM.

In the case of `Cn1ncc2c1-c1ccccc1OC21CCN(C(=O)c2ccc(S(=O)(=O)C(F)(F)F)cc2)CC1` [Compound 663], the 50% inhibitory concentration (IC50) is not above 2000 nM.

For the compound `COc1ccc(C(=O)N2CCC3(CC2)Oc2ccccc2-c2c3cnn2C)c(OC(F)(F)F)c1` [Compound 664], the IC50 was not above 2000 nM.

As to `COc1c(F)cccc1C(=O)N1CCC2(CC1)Oc1cc(Cl)ccc1-n1c(C#N)ccc12` [Compound 665], the half-maximal inhibitory concentration (IC50) is not above 2000 nM.

Consider `CC(C)[S+]([O-])c1ccc(C(=O)N2CCC3(CC2)Oc2ccccc2-c2c3cnn2C)cc1` (stereo not drawn) [Compound 666], for which the half-inhibitory concentration (IC50) was in the range of 2000 to 5000 nM.

As to `Cn1ncc2c1-c1ccccc1OC21CCN(C(=O)c2ccc(Cl)cc2S(C)(=O)=O)CC1` [Compound 667], the 50% inhibitory concentration (IC50) is more than 5000 nM.

Turning to `COc1cc(C(=O)N2CCC3(CC2)Oc2ccccc2-c2c3cnn2C)ccc1OC[C@@H](C)OC` [Compound 668], the 50% inhibitory concentration (IC50) was not above 2000 nM.

For `CCc1ccc(C(=O)N2CCC3(CC2)Oc2cc(COC)ccc2-n2cccc23)cc1OC` [Compound 669], the concentration for half-maximal inhibition (IC50) was not above 2000 nM.

Regarding `Cn1cc(C(=O)N2CCC3(CC2)Oc2cc(Cl)ccc2-n2cccc23)ccc1=O` [Compound 670], the IC50 is more than 5000 nM.

Regarding `N#Cc1ccc2n1-c1ccccc1OC21CCN(C(=O)c2ccc(O)cc2)CC1` [Compound 671], the IC50 is not above 2000 nM.

Take `COc1ccccc1C(=O)N1CCC2(CC1)Oc1ccccc1-c1c2cnn1C` [Compound 672]: the IC50 was not above 2000 nM.

Consider `COc1c(Cl)cccc1C(=O)N1CCC2(CC1)Oc1ccccc1-c1c2cnn1C` [Compound 673], for which the half-inhibitory concentration (IC50) is not above 2000 nM.

Turning to `CCn1ncc2c1-c1cc(F)ccc1OC21CCN(C(=O)c2ccccc2OC)CC1` [Compound 674], the IC50 lay in the range of 2000 to 5000 nM.

Consider `CNS(=O)(=O)c1ccc(C(=O)N2CCC3(CC2)Oc2ccccc2-n2c(C(F)(F)F)ccc23)cc1` [Compound 675], for which the IC50 is not above 2000 nM.

With `Cc1cc(C(=O)N2CCC3(CC2)Oc2ccccc2-n2c(CNC=O)ccc23)ccc1OC(C)C` [Compound 677], the IC50 is not above 2000 nM.

As to `COc1cc(C(=O)N2CCC3(CC2)Oc2ccccc2-n2cccc23)ccc1OC1CCC(O)C1` (stereo not drawn) [Compound 678], the IC50 is not above 2000 nM.

On to `CC(C)S(=O)(=O)c1ccc(C(=O)N2CCC3(CC2)Oc2cc(Cl)ccc2-n2c(C#N)ccc23)cc1` [Compound 679], for which the IC50 was 2000 to 5000 nM.

`CC[C@@H](C)Oc1ccc(C(=O)N2CCC3(CC2)Oc2cc(Cl)ccc2-n2cccc23)cc1OC` [Compound 681]: the half-inhibitory concentration (IC50) is not above 2000 nM.

On to `CC(C)(O)Cc1ccc(C(=O)N2CCC3(CC2)Oc2ccccc2-n2c(C(F)(F)F)ccc23)cc1` [Compound 682], for which the IC50 was not above 2000 nM.

As to `COc1cc(C(=O)N2CCC3(CC2)Oc2cc(F)ccc2-n2cccc23)ccc1O[C@@H]1CCOC1` [Compound 683], the IC50 is not above 2000 nM.

On to `C[S+]([O-])c1ccc(C(=O)N2CCC3(CC2)Oc2ccccc2-n2c(C#N)ccc23)cc1C(F)(F)F` (stereo not drawn) [Compound 684], for which the IC50 is not above 2000 nM.

For `CC(C)(CO)S(=O)(=O)c1ccc(C(=O)N2CCC3(CC2)Oc2ccccc2-n2c(C(F)(F)F)ccc23)cc1` [Compound 685], the IC50 was in the range of 2000 to 5000 nM.

As to `COc1cc(C(=O)N2CCC3(CC2)Oc2ccccc2-n2c(C#N)ccc23)ccc1OC(C)(C)C` [Compound 686], the half-maximal inhibitory concentration (IC50) was not above 2000 nM.

Turning to `COc1cc(C(=O)N2CCC3(CC2)Oc2ccccc2-n2cccc23)ccc1OCC(N)=O` [Compound 687], the half-maximal inhibitory concentration (IC50) is not above 2000 nM.

For the compound `Cc1cc(C(=O)N2CCC3(CC2)Oc2ccccc2-c2nn(C)cc23)ccc1OC(C)C` [Compound 689], the IC50 was not above 2000 nM.

On to `COc1cc(C(=O)N2CCC3(CC2)Oc2cc(Cl)ccc2-n2cccc23)ccc1O[C@H]1CCOC1` [Compound 690], for which the half-inhibitory concentration (IC50) lay within 2000 to 5000 nM.

For `COc1cc(C(=O)N2CCC3(CC2)Oc2cc(F)ccc2-n2cccc23)ccc1OC[C@@H]1COC(C)(C)O1` [Compound 693], the concentration for half-maximal inhibition (IC50) was not above 2000 nM.

As to `COc1cc(OC(C)C)ccc1C(=O)N1CCC2(CC1)Oc1ccccc1-c1c2cnn1C` [Compound 694], the half-maximal inhibitory concentration (IC50) is not above 2000 nM.

`CCc1ccc(C(=O)N2CCC3(CC2)Oc2cc(Cl)ccc2-n2cccc23)cc1OC` [Compound 697]: the 50% inhibitory concentration (IC50) was not above 2000 nM.

As for `COc1cc(C(=O)N2CCC3(CC2)Oc2ccccc2-n2c(C#N)ccc23)ccc1C(C)(C)CO` [Compound 698], the 50% inhibitory concentration (IC50) was not above 2000 nM.

Regarding `COc1c(F)cccc1C(=O)N1CCC2(CC1)Oc1ccccc1-c1c2cnn1C` [Compound 699], the concentration for half-maximal inhibition (IC50) is not above 2000 nM.

For `Cc1cc(C(=O)N2CCC3(CC2)Oc2ccccc2-c2c3cnn2C)ccc1O` [Compound 700], the IC50 was not above 2000 nM.

As for `Cc1ccc(C(=O)N2CCC3(CC2)Oc2ccccc2-c2c3cnn2C)cc1C` [Compound 701], the 50% inhibitory concentration (IC50) is 2000 to 5000 nM.

For the compound `COc1c(C(=O)N2CCC3(CC2)Oc2ccccc2-c2c3cnn2C)ccc(F)c1F` [Compound 702], the IC50 was 2000 to 5000 nM.

Consider `COc1cccc(OC)c1C(=O)N1CCC2(CC1)Oc1cc(Cl)ccc1-n1cccc12` [Compound 703], for which the IC50 is not above 2000 nM.

As for `Cn1ncc2c1-c1ccccc1OC21CCN(C(=O)c2ccc(OC(C)(C)C)cc2F)CC1` [Compound 704], the half-maximal inhibitory concentration (IC50) was not above 2000 nM.

As for `CC(C)n1ncc2c1-c1ccccc1OC21CCN(C(=O)c2ccccc2OC(F)F)CC1` [Compound 705], the IC50 was not above 2000 nM.

Turning to `COCCOc1cc(C(=O)N2CCC3(CC2)Oc2cc(Cl)ccc2-n2cccc23)ccn1` [Compound 706], the IC50 is not above 2000 nM.

`CCCOc1ccc(C(=O)N2CCC3(CC2)Oc2ccccc2-c2c3cnn2C)cc1C` [Compound 709]: the IC50 is not above 2000 nM.

For the compound `Cc1ccc(OC(C)C)c(C(=O)N2CCC3(CC2)Oc2ccccc2-c2c3cnn2C)c1` [Compound 710], the 50% inhibitory concentration (IC50) is not above 2000 nM.

On to `CC(C)C(O)c1ccc(C(=O)N2CCC3(CC2)Oc2ccccc2-c2c3cnn2C)cc1` (stereo not drawn) [Compound 711], for which the IC50 was not above 2000 nM.

In the case of `CCc1ccc(C(=O)N2CCC3(CC2)Oc2cc(C(=O)NC)ccc2-n2cccc23)cc1OC` [Compound 713], the IC50 is not above 2000 nM.

On to `CN(C)S(=O)(=O)c1ccc(C(=O)N2CCC3(CC2)Oc2ccccc2-c2c3cnn2C)cc1` [Compound 714], for which the concentration for half-maximal inhibition (IC50) lay within 2000 to 5000 nM.

With `COc1cc(C(=O)N2CCC3(CC2)Oc2ccccc2-c2c3cnn2C)ccc1C(C)(C)CO` [Compound 716], the IC50 was not above 2000 nM.

For `Cn1c(C(=O)N2CCC3(CC2)Oc2cc(Cl)ccc2-n2cccc23)cccc1=O` [Compound 718], the IC50 was 2000 to 5000 nM.

With `CC(C)NS(=O)(=O)c1ccc(C(=O)N2CCC3(CC2)Oc2ccccc2-n2c(C#N)ccc23)cc1` [Compound 721], the IC50 is not above 2000 nM.

Turning to `CC(C)(O)c1ccc(C(=O)N2CCC3(CC2)Oc2ccccc2-n2c(C(F)(F)F)ccc23)cc1` [Compound 722], the IC50 is not above 2000 nM.

For `COC(=O)C(C)(C)c1ccc(C(=O)N2CCC3(CC2)Oc2cc(Cl)ccc2-n2cccc23)cc1OC` [Compound 723], the IC50 is not above 2000 nM.

For the compound `COc1cccc(C(=O)N2CCC3(CC2)Oc2cc(Cl)ccc2-n2cccc23)c1` [Compound 724], the IC50 was not above 2000 nM.
